Where two headings read alike, the source gives them in different places.
Experiments:
[1] = healthy human subjects, cited from earlier work
[2] = cited from earlier work
[3] = In vivo PK DDI study of TOF with or without RTV in rats (plasma LC-MS/MS, NCA); parameters: species or system Sprague–Dawley rats; settings: for concentration at 12 h: oral, rat plasma, 12 h after TOF 10 mg/kg oral
Protocol: The rats were randomly divided into three groups (eight rats per group) after 1 week of acclimatization. Each rat was pretreated with RTV by oral gavage at different doses for four consecutive days (from Day 1 to Day 4) to ensure steady-state CYP3A inhibition, based on studies indicating rapid onset of inhibition. Group 1 (control group) received the vehicle (normal saline). Groups 2 and 3 served as test groups and received 10 and 20 mg/kg RTV once daily (QD), respectively. […] The collected samples were centrifuged at 10,000 rpm for 10 min at 4 °C to separate the plasma and stored at −80 °C until analysis.
Plasma samples were prepared by protein precipitation with acetonitrile containing domperidone as an internal standard (100 ng/mL). After vortex mixing and centrifugation at 15,000× g for 10 min at 4 °C, the supernatant was analyzed by LC-MS/MS with an injection volume of 5 μL. Chromatographic separation was achieved on a C18 reversed-phase column with a mobile phase of 0.1% formic acid in water and acetonitrile at a flow rate of 0.4 mL/min. Mass spectrometry was performed in positive ion mode with an electrospray ionization probe. […] Detailed instrument settings, sample preparation, calibration, and validation data are provided in Supplementary Material (Tables S1 and S2; Figure S1).

[4] = humans; cited from earlier work
[5] = rats; cited from earlier work
[6] = cited from earlier work; remark: listed apart in the source
CYP3A4 = settings: in vitro study; cited from earlier work
[7] = healthy subjects, co-administration of RTV 400 mg twice daily; cited from earlier work
[8] = Sprague-Dawley, rat, plasma, po, 10 mg/kg, rats, TOF 10 mg/kg oral, Control (TOF only, vehicle), median [interquartile range]
[9] = rats, TOF 10 mg/kg oral, Control (TOF only, vehicle), median [interquartile range]
[10] = rats, TOF 10 mg/kg oral, RTV 10 mg/kg, median [interquartile range]

C[C@@H]1CCN(C(=O)CC#N)C[C@@H]1N(C)c1ncnc2[nH]ccc12 [TOF, Tofacitinib]
Increase in AUC of TOF ([1]; co-administration of fluconazole): 79% | Increase in AUC of TOF ([1]; co-administration of ketoconazole): 103% | Increase in AUC of TOF ([2]; rats pretreated with fluconazole (inhibitor of CYP2C11)): 39% | Increase in AUC of TOF ([2]; rats pretreated with ketoconazole (inhibitor of CYP3A1/2)): 46% | Increase in AUC of TOF ([2]; rats, with voriconazole (inhibits CYP3A1/2 and CYP2C11)): 166% | concentration at 12 h ([3]; Sprague-Dawley, rat, plasma, RTV 10 mg/kg, read-out: Lowest plasma concentration at 12 h): 1.5 ng/mL | concentration at 12 h ([3]; Sprague-Dawley, rat, plasma, RTV 10 mg/kg, read-out: Mean plasma concentration at 12 h): 21.9 ng/mL | concentration at 12 h ([3]; Sprague-Dawley, rat, plasma, RTV 20 mg/kg, read-out: Lowest plasma concentration at 12 h): 2.6 ng/mL | concentration at 12 h ([3]; Sprague-Dawley, rat, plasma, RTV 20 mg/kg, read-out: Mean plasma concentration at 12 h): 12.1 ng/mL | AUC(0-inf) [3, 8]: 2720 ng·h/mL | half-life [3, 8]: 1.21 h | half-life ([3]; Sprague-Dawley, rat, plasma, po, 10 mg/kg, rats, TOF 10 mg/kg oral, RTV 10 mg/kg, median [interquartile range]): 1 h | Cmax ([3]; Sprague-Dawley, rat, plasma, po, 10 mg/kg, rats, TOF 10 mg/kg oral, RTV 10 mg/kg, median [interquartile range], read-out: Cmax): 2250 ng/mL | AUC(0-inf) ([3]; Sprague-Dawley, rat, plasma, po, 10 mg/kg, rats, TOF 10 mg/kg oral, RTV 20 mg/kg pretreatment and coadministration, median [interquartile range]): 16000 ng·h/mL | half-life ([3]; Sprague-Dawley, rat, plasma, po, 10 mg/kg, rats, TOF 10 mg/kg oral, RTV 20 mg/kg, median [interquartile range]): 0.87 h | Cmax ([3]; Sprague-Dawley, rat, plasma, po, 10 mg/kg, rats, TOF 10 mg/kg oral, RTV 20 mg/kg, median [interquartile range], read-out: Cmax): 3900 ng/mL | Tmax ([3]; Sprague-Dawley, rat, plasma, po, 10 mg/kg, read-out: Tmax): 1 h | CL [3, 9]: 3.57 [2.65–4.49] L/h/kg | Cmax [3, 9]: 1362 [1263–1410] ng/mL | Tmax [3, 9]: 0.25 [0.25–0.5] h | CL [3, 10]: 1.65 [1.19–2.11] L/h/kg | Tmax [3, 10]: 0.5 [0.44–1.0] h | CL ([3]; rats, TOF 10 mg/kg oral, RTV 20 mg/kg, median [interquartile range]): 0.66 [0.60- 0.73] L/h/kg | Change of half-life (t1/2) with RTV ([3]; rats, TOF 10 mg/kg oral, RTV 10 and 20 mg/kg vs Control, p = 0.08): remained unchanged | Hepatic clearance as share of total clearance [4]: 70% | Renal clearance as share of total clearance [4]: 30% | Bioavailability (BA) [5]: 29.1%

C=CC[C@@H]1/C=C(\C)C[C@H](C)C[C@H](OC)[C@H]2O[C@@](O)(C(=O)C(=O)N3CCCC[C@H]3C(=O)O[C@H](/C(C)=C/[C@@H]3CC[C@@H](O)[C@H](OC)C3)[C@H](C)[C@@H](O)CC1=O)[C@H](C)C[C@@H]2OC [Tacrolimus]
Change in exposure on co-administration with RTV ([6]; patients undergoing long-term tacrolimus treatment): increase to toxic levels within 3 days

CC(=O)N1CCN(c2ccc(OCC3COC(Cn4ccnc4)(c4ccc(Cl)cc4Cl)O3)cc2)CC1 (stereo not shown) [ketoconazole]
Inhibition of the overall metabolism of TOF (CYP3A4): over 70%

COc1ccc2c3c1O[C@H]1C(=O)CC[C@@]4(O)[C@@H](C2)N(C)CC[C@]314 [oxycodone]
Change in exposure in the presence of RTV ([6]; in the presence of RTV): tripled

C[C@@H](c1ncncc1F)[C@](O)(Cn1cncn1)c1ccc(F)cc1F [voriconazole]
Decrease in steady-state AUC [7]: 82%

Reference: paper PMC12567268 (Pharmaceuticals, 2025)
